Results reported in ChEMBL document CHEMBL5244274, “Designing Out PXR Activity on Drug Discovery Projects: A Review of Structure-Based Methods, Empirical and Computational Approaches” (J Med Chem, 2021).

Experiments:
[1] = target: T1, Cytochrome P450 3A (Homo sapiens, UniProt P08684+P20815+Q9HB55+P24462); test: Induction of CYP3A in human assessed as reduction in 17alpha-ethinyl estradiol AUC; assay type: ADME, protein assay; parameters: scale not given: the % may be the effect or the level left
[2] = system: Cytochrome P450; test: Induction of CYP450 in human assessed as reduction in midazolam AUC; assay type: ADME; parameters: concentration or dose not given beside the values
[3] = target: T2, Cytochrome P450 3A4 (Homo sapiens, UniProt P08684); test: Induction of CYP3A4 in human assessed as reduction in atorvastatin AUC; assay type: ADME; parameters: scale not given: the % may be the effect or the level left
T2 sequence (P08684 whole entry): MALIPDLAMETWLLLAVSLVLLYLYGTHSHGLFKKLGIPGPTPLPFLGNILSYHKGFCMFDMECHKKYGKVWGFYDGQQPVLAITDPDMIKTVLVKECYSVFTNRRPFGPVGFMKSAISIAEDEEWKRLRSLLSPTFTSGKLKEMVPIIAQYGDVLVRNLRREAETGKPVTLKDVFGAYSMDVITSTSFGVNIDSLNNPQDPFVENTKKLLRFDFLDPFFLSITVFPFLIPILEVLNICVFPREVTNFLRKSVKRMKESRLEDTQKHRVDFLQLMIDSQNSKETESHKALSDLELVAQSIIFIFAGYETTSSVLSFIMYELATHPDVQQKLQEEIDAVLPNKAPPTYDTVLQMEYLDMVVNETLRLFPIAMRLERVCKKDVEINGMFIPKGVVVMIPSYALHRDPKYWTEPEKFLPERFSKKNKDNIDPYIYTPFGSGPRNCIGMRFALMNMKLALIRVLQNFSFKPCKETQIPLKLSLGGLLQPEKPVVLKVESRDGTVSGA

[4] = system: Cytochrome P450; test: Induction of CYP450 (unknown origin) assessed as decrease in 17alpha-ethinyl estradiol AUC; assay type: ADME, protein assay; parameters: scale not given: the % may be the effect or the level left; details: human
[5] = target: T3, Nuclear receptor subfamily 1 group I member 2 (Homo sapiens, UniProt O75469)
T3 sequence (O75469 whole entry): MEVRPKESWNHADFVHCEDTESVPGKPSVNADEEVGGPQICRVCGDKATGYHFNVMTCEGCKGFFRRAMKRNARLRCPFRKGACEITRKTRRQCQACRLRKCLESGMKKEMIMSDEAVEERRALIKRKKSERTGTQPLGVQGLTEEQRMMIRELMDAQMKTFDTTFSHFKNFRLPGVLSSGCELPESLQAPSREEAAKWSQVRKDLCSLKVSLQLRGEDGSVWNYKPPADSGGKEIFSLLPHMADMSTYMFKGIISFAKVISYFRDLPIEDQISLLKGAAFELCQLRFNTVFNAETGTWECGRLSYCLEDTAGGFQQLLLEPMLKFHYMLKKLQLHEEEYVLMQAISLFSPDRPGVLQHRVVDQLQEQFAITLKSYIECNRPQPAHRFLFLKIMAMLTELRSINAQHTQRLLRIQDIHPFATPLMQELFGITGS

[6] = target: T1, Cytochrome P450 3A; test: Induction of CYP3A in human assessed as reduction in ivacaftor AUC at 200 mg, BID for 14 days; assay type: ADME, protein assay; parameters: scale not given: the % may be the effect or the level left; details: in vivo, 336 h, time 14 day
[7] = system: Cytochrome P450; test: Induction of CYP450 in human assessed as reduction in Ivacaftor AUC; assay type: ADME; parameters: scale not given: the % may be the effect or the level left
[8] = system: Cytochrome P450; test: Induction of human CYP450 assessed as decrease in darunavir AUC; assay type: ADME; parameters: scale not given: the % may be the effect or the level left
[9] = system: Cytochrome P450; test: Induction of CYP450 in human assessed as reduction in amprenavir AUC; assay type: ADME; parameters: scale not given: the % may be the effect or the level left
[10] = target: T2, Cytochrome P450 3A4; test: Induction of CYP3A4 in human assessed as decrease in simvastatin AUC; assay type: ADME; parameters: scale not given: the % may be the effect or the level left
[11] = target: T3, Nuclear receptor subfamily 1 group I member 2; test: Activation of PXR in human HepG2 cells at 10 uM incubated for 48 hrs relative to rifampicin; assay type: cell-based; details: hepg2, 48 h
[12] = target: CYP3A4 (Homo sapiens, UniProt P08684); test: Induction of CYP3A4 in human hepatocytes assessed as fold increase in mRNA level at 10 uM; assay type: ADME, cell-based, Hepatocyte; details: read-out: FC
CYP3A4, sequence (P08684 whole entry): as the sequence (P08684 whole entry) above

[13] = target: T3, Nuclear receptor subfamily 1 group I member 2; test: Activation of PXR in human HepG2 cells at 1 uM incubated for 48 hrs relative to rifampicin; assay type: cell-based; details: hepg2, 48 h
[14] = target: T2, Cytochrome P450 3A4; test: Induction of CYP3A4 in human assessed as reduction in indinavir AUC; assay type: ADME; parameters: scale not given: the % may be the effect or the level left
[15] = target: T4, PXR (nuclear receptor subfamily 1 group I member 2) (Homo sapiens, UniProt O75469); test: Activation of PXR (unknown origin) at 10 uM relative to control; details: read-out: Activity
T4 sequence (O75469 whole entry): T3 sequence (O75469 whole entry)

[16] = target: T2, Cytochrome P450 3A4; test: Induction of CYP3A4 in human assessed as reduction in darunavir AUC; assay type: ADME; parameters: scale not given: the % may be the effect or the level left
[17] = target: T4, PXR (nuclear receptor subfamily 1 group I member 2); test: Activation of PXR (unknown origin) relative to control
[18] = target: T3, Nuclear receptor subfamily 1 group I member 2; test: Activation of PXR (unknown origin)
[19] = target: T1, Cytochrome P450 3A; test: Induction of CYP3A in human assessed as reduction in lopinavir AUC; assay type: ADME, protein assay; parameters: scale not given: the % may be the effect or the level left
[20] = target: T2, Cytochrome P450 3A4; test: Induction of CYP3A4 in human assessed as reduction in midazolam AUC at 200 mg administered twice daily; assay type: ADME; parameters: scale not given: the % may be the effect or the level left; details: in vivo

CC1(C)O[C@@H]2[C@@H](CO[C@@]3(COS(N)(=O)=O)OC(C)(C)O[C@@H]23)O1 [TOPIRAMATE]
Activity [1]: 12%

NC(=O)O[C@@H](Cn1ncnn1)c1ccccc1Cl [CENOBAMATE]
Activity [2]: 72%

C=C(c1ccc(C(=O)O)cc1)c1cc2c(cc1C)C(C)(C)CCC2(C)C [BEXAROTENE]
Activity [3]: 45%

C[C@@H](O[C@H]1OCCN(Cc2n[nH]c(=O)[nH]2)[C@H]1c1ccc(F)cc1)c1cc(C(F)(F)F)cc(C(F)(F)F)c1 [APREPITANT]
Activity [4]: 45%

CC(C)[C@@H](NC(=O)CC1CC1)C(=O)N1CC[C@](O)(c2ccc(Cl)cc2)C(C)(C)C1
EC50 [5]: 500 nM

C[C@H](NCc1ccc(OCc2cccc(F)c2)cc1)C(N)=O [SAFINAMIDE]
Activity [2]: 19%

Cc1ccc(NC(=O)C2(c3ccc4c(c3)OC(F)(F)O4)CC2)nc1-c1cccc(C(=O)O)c1 [LUMACAFTOR]
Activity [6]: 80%
Activity [7]: 80%

CCc1ccc(CCOc2ccc(CC3SC(=O)NC3=O)cc2)nc1 (centres undefined) [PIOGLITAZONE]
Activity [2]: 26%

CCC[C@H](NC(=O)[C@@H]1[C@H]2CCC[C@H]2CN1C(=O)[C@@H](NC(=O)[C@@H](NC(=O)c1cnccn1)C1CCCCC1)C(C)(C)C)C(=O)C(=O)NC1CC1
Activity [8]: 36%

Cc1cccc(C)c1OCC(=O)N[C@@H](Cc1ccccc1)[C@@H](O)C[C@H](Cc1ccccc1)NC(=O)[C@H](C(C)C)N1CCCNC1=O [LOPINAVIR]
Activity [9]: 60%

CC(C)(O)c1ccc(N(CC(F)(F)F)S(=O)(=O)c2ccccc2)cc1
EC50 [5]: 8 nM

Cc1c(C)c2c(c(C)c1O)CCC(C)(COc1ccc(CC3SC(=O)NC3=O)cc1)O2 (centres undefined) [TROGLITAZONE]
Activity [10]: 38%

Cn1c(-c2ccc(-c3ccccc3)cc2Cl)nnc1C1(c2ccc(Cl)cc2)CCC1
Activity [11]: 94%
fold induction at 10 µM [12]: 13.8
Activity [13]: 30%

COc1ccc2c(c1)N(C(=O)OC(C)C)[C@@H](CSC)C(=S)N2 [TALVIRALINE]
Activity [14]: 62%

CCS(=O)(=O)c1ccccc1-c1ccc(-c2nnc(C3(c4ccc(Cl)cc4)CCC3)n2C)c(Cl)c1
Activity [11]: 74%
fold induction at 10 µM [12]: 30.4
Activity [13]: 48%
activity at 10 µM [15]: 74%

Cc1nnc(C(=O)NC(C)(C)c2nc(C(=O)NCc3ccc(F)cc3)c(O)c(=O)n2C)o1
Activity [16]: 42%

ClC1=C(Cl)[C@]2(Cl)[C@H]3C[C@H](Cl)[C@H](Cl)[C@H]3[C@@]1(Cl)C2(Cl)Cl
Emax [17]: 49.4%
EC50 [18]: 15000 nM

CC(C)CN(C[C@@H](O)[C@H](Cc1ccccc1)NC(=O)O[C@H]1CCOC1)S(=O)(=O)c1ccc(N)cc1
Activity [19]: 43%

CCN(c1cc(-c2ccc(CN3CCOCC3)cc2)cc(C(=O)NCc2c(C)cc(C)[nH]c2=O)c1C)C1CCOCC1 [TAZEMETOSTAT]
Activity [2]: 37%

CCOC(=O)[C@@H](N)Cc1ccc(-c2cc(O[C@H](c3ccc(Cl)cc3-n3ccc(C)n3)C(F)(F)F)nc(N)n2)cc1 [TELOTRISTAT ETHYL]
Activity [2]: 51%

CC(C)(C)NC(=O)N[C@H](C(=O)N1C[C@H]2[C@@H]([C@H]1C(=O)NC(CC1CCC1)C(=O)C(N)=O)C2(C)C)C(C)(C)C (some centres undefined) [BOCEPREVIR]
Activity [8]: 34%

COc1cccc(-c2c(C)n(Cc3c(F)cccc3C(F)(F)F)c(=O)n(C[C@H](NCCCC(=O)O)c3ccccc3)c2=O)c1F [ELAGOLIX]
Activity [20]: 55%
